Where two headings read alike, the source gives them in different places.
Experiments:
[1] = tested on: S462.TY cells; assay: Interaction of RC16 with sialic acid (MTT); type: cell-based, human; conditions: 24 h
Method: Neuraminidase was used to cleave the sialic acid residues from the polysialilated glycoproteins and gangliosides of the tumor cell surface and the anticancer activity of RC16 was subsequently tested in comparison with the cells not exposed to Neuraminidase. Cells were seeded on 96 well plates at a density of 2 × 10^4 cells /plate and after 24 h were exposed to 50 IU/mL Neuraminidase Type VI from Clostridium Perfrigens (Sigma) for 3 h. Cells were washed 3 times with PBS and afterwards treated with RC16 . The effect on cell number was evaluated after 24 h by MTT assay in comparison with cells not treated with Neuraminidase. The RC16 –sialic acid interaction was also evaluated by adding sialic acid to the culture medium in stoichiometric amount with respect to RC16. In this experiment cells seeded on 96 well plates at a density of 2 × 10^4 cells /plate and after 24 h were treated with a mixture of RC16 : sialic acid (3 μM : 3 μM). After 24 h the effect on cell number was evaluated by MTT assay in comparison with cells treated with pure RC16 or pure sialic acid at the same concentration (3 μM) of the mixture.

[2] = tested on: pediatric tumor cell lines; assay: MTT cell killing, pediatric tumor cell lines (summary); type: cell-based; conditions: Table I
Method: (§1) Cells were plated in 96-well tissue culture plates at a density of 1 × 10^3 cells/well, allowed to attach 24 h, and then left untreated or treated with growth medium containing different concentrations of the tested RCn compounds previously dissolved in PBS. After different time periods the cell vitality was determined by MTT assay according to the manufacture’s instruction (Promega). Results are reported as the micromolar concentration of RCn reducing cell survival to 50% (IC50).

[3] = tested on: S462TY; assay: MTT cell proliferation assay, S462TY; type: cell-based; conditions: Homo sapiens, Malignant Peripheral Nerve Sheath Tumor, read-out: Cell killing activity IC50
Method: as §1

For `CCCCCCCCCCCCCCC1CN2CCCN3CCCCCC132` (centres unmarked) [RC16, 2-tetradecyl-4,8-diazatricyclo[6.5.0.0^1,^4]tridecane], the “Anticancer activity after Neuraminidase pre-treatment of cells” value ([1]; RC16 3 μM, versus cells not exposed to Neuraminidase) was “decreased the anticancer activity of RC16”, the “Anticancer activity with sialic acid added to culture medium” value ([1]; RC16 : sialic acid 3 μM : 3 μM, versus pure RC16) was “decreased the RC16 anticancer activity” and the “Cell killing (qualitative)” value [2] was “most active”. It also gave an IC50 ([3]; 24 h) of 1110 nM and an IC50 ([3]; 48 h) of 760 nM.
